According to paper PMC11344480 (ACS infectious diseases, 2021):
≈ marks a conversion by molar mass, not a printed value.

Key:
[1] = molecular target: NLRP3 inflammasome (Homo sapiens, UniProt Q96P20); assay type: cell-based
[2] = XTT reduction viability assay; assay type: cell-based; conditions: human
[3] = system: C. albicans; test: Modified MIC50 assay; assay type: cell-based, C. albicans SC5314; conditions: 24 h
[4] = system: C. auris; test: Modified MIC50 assay; assay type: cell-based; conditions: Candidozyma auris, 24 h
[5] = system: C. dubliniensis; test: Modified MIC50 assay; assay type: cell-based, C. dubliniensis CD36; conditions: Candida dubliniensis, 24 h
[6] = system: C. tropicalis; test: Modified MIC50 assay; assay type: cell-based, C. tropicalis MYA3404; conditions: Candida tropicalis, 24 h
[7] = system: Candida species; conditions: via targeting of AHAS; cited from earlier work
[8] = system: C. albicans AHAS; conditions: cited from earlier work
[9] = system: C. albicans; conditions: mice, prophylactic administration; cited from earlier work
[10] = system: C. albicans; conditions: prior work of the laboratory; cited from earlier work

Sequence of NLRP3 inflammasome (Q96P20 whole entry): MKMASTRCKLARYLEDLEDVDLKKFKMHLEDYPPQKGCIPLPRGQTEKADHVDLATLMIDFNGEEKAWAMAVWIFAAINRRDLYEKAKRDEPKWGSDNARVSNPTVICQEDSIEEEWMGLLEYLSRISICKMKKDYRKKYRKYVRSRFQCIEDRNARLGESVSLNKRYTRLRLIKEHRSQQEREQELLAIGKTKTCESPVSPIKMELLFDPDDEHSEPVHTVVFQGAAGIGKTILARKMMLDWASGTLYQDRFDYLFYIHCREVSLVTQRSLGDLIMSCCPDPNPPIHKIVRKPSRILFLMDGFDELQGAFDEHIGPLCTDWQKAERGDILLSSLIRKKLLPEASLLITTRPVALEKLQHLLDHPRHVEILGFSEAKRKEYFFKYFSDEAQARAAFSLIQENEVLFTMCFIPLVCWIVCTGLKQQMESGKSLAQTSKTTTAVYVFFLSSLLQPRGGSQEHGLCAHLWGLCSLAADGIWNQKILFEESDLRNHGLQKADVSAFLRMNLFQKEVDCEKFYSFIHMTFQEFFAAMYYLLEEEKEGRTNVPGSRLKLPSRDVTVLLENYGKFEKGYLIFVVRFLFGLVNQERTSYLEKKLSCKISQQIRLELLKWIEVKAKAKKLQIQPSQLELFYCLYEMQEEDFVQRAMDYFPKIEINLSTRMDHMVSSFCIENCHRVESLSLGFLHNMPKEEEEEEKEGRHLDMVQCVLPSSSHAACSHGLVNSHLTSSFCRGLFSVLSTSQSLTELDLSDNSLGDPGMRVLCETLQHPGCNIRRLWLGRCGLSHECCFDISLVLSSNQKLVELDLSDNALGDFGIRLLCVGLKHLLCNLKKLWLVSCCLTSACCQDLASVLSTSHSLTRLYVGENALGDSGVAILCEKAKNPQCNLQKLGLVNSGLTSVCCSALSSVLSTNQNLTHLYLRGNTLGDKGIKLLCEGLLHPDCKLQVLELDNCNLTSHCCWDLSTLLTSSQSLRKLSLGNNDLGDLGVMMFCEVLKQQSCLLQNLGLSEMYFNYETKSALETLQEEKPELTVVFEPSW

SMILES | IC50 [1] [µM] | viability at 5 h, 50 µM [2] [%] | MIC50 ([3]; C. albicans, YNB, mean ± SD) [µM] | MIC50 ([3]; Candida albicans) [µM] | MIC50 [4] [µM] | MIC50 [5] [µM] | MIC50 [6] [µM] | growth of the Candida species [7] | inhibition of purified C. albicans AHAS protein [8] | fungal burden in the kidney, spleen, liver, and lungs [9] | protection against disseminated C. albicans infection [9] | preventing fungal growth or filamentation [10]
CCOC(=O)c1ccccc1S(=O)(=O)NC(=O)Nc1nc(Cl)cc(OC)n1 [Compound 13, chlorimuron ethyl] | > 50 | 103 ± 7.3 | 0.5 ± 0.2 (≈ 0.207 µg/mL) | 0.5 (≈ 0.207 µg/mL) | 0.8 ± 0.3 (≈ 0.332 µg/mL) | 1.3 ± 0.7 (≈ 0.539 µg/mL) | 21.1 ± 3 (≈ 8.75 µg/mL) | effective at reducing growth | potent inhibitors | significantly reduced fungal burden | provided protection | –
COc1ccc(Cl)cc1C(=O)NCCc1ccc(S(=O)(=O)NC(=O)NC2CCCCC2)cc1 [glyburide] | – | – | – | – | – | – | – | – | – | – | – | completely ineffective
